The results in this text go back to US10000501B2, “Inhibitors of HIF prolyl hydroxylase” (MERCK SHARP & DOHME CORP., priority 2014, dated 2018).

The assay deals with T1, human HIF-PHD2 (Homo sapiens, UniProt Q9GZT9).
T1 construct: FLAG-tagged full length PHD2 expressed in and purified from baculovirus-infected Sf9 cells; FLAG; made in house; host or cells: baculovirus-infected Sf9 cells
T1 sequence (Q9GZT9 whole entry): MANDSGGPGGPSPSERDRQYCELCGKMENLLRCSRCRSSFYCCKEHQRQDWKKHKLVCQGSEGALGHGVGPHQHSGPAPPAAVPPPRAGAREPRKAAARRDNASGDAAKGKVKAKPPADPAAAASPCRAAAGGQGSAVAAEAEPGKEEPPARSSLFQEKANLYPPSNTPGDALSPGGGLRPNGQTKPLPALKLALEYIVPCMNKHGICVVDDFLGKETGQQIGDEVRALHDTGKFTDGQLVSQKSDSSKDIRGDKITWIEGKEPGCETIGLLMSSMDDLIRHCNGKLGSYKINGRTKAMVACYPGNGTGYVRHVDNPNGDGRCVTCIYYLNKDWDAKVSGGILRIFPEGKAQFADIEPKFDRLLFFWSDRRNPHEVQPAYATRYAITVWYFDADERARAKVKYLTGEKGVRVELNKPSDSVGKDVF
As to the kind of experiment: HIF-PHD2 inhibition assay (hydroxylation of HIF-1α peptide, time resolved fluorescence). In kind it is biochemical. The conditions noted are these: FLAG-tagged full length PHD2; 0.2 μM 2-oxoglutarate, 0.5 μM HIF-1α peptide. On the procedure:
To each well of a 384-well plate, 1 μL of test compounds in DMSO (final concentration ranging from 0.3 nM to 10 uM) were added into 20 μl of assay buffer (50 mM Tris pH 7.4/0.01% Tween-20/0.1 mg/ml bovine serum albumin/10 μM ferrous sulfate/1 mM sodium ascorbate/20 μg/ml catalase) containing 0.15 μg/ml FLAG-tagged full length PHD2 expressed in and purified from baculovirus-infected Sf9 cells. […] Purif.
Broadly, the IC50 is the concentration that inhibits the measured activity by half. The low end stands for greater potency, the high end for weaker potency. In the case of `CN1Cc2c(c(O)c(C(=O)NCC(=O)O)c(=O)n2Cc2ccc(C#N)cc2)CC1=O` [Example 74, 2-(1-(4-cyanobenzyl)-4-hydroxy-7-methyl-2,6-dioxo-1,2,5,6,7,8-hexahydro-1,7-naphthyridine-3-carboxamido)acetic acid], the IC50 worked out at 7.5 nM. That is a single-digit nanomolar value. With `O=C(O)CNC(=O)c1c(O)c2c(n(Cc3nc4ccccc4s3)c1=O)COCC2` [Example 48, 2-(1-(benzo[d]thiazol-2-ylmethyl)-4-hydroxy-2-oxo-2,5,6,8-tetrahydro-1H-pyrano[3,4-b]pyridine-3-carboxamido)acetic acid] the figure was 8.9 nM; with `CN1Cc2c(c(O)c(C(=O)NCC(=O)O)c(=O)n2Cc2cccc(C#N)c2)CC1=O` [Example 73, 2-(1-(3-cyanobenzyl)-4-hydroxy-7-methyl-2,6-dioxo-1,2,5,6,7,8-hexahydro-1,7-naphthyridine-3-carboxamido)acetic acid], 17.2 nM; with `O=C(O)CNC(=O)c1c(O)c2c(n(Cc3cncs3)c1=O)CCOC2` [Example 31, 2-(4-Hydroxy-2-oxo-1-(thiazol-5-ylmethyl)-2,5,7,8-tetrahydro-1H-pyrano[4,3-b]pyridine-3-carboxamido)acetic acid], 32.8 nM.

With `O=C(O)CNC(=O)c1c(O)c2c(n(Cc3nc4ccccc4s3)c1=O)C1CCC2C1` (racemic) [Example 82, 2-((5S,8R)-1-(benzo[d]thiazol-2-ylmethyl)-4-hydroxy-2-oxo-1,2,5,6,7,8-hexahydro-5,8-methanoquinoline-3-carboxamido)acetic acid], 43 nM corresponded to half-maximal inhibition (IC50). As for `O=C(O)CNC(=O)c1c(O)c2c(n(Cc3ccc(F)cc3)c1=O)COCC2` [Example 53, 2-(1-(4-fluorobenzyl)-4-hydroxy-2-oxo-2,5,6,8-tetrahydro-1H-pyrano[3,4-b]pyridine-3-carboxamido)acetic acid], the figure is 29.3 nM; as for `O=C(O)CNC(=O)c1c(O)c2c(n(Cc3ccc(C(F)(F)F)nc3)c1=O)COCC2` [Example 42, 2-(4-hydroxy-2-oxo-1-((6-(trifluoromethyl)pyridin-3-yl)methyl)-2,5,6,8-tetrahydro-1H-pyrano[3,4-b]pyridine-3-carboxamido)acetic acid], 19.9 nM; as for `O=C(O)CNC(=O)c1c(O)c2c(n(Cc3ccc(F)cc3F)c1=O)CCOC2` [Example 16, 2-(1-(2,4-difluorobenzyl)-4-hydroxy-2-oxo-2,5,7,8-tetrahydro-1H-pyrano[4,3-b]pyridine-3-carboxamido)acetic acid], 10.3 nM. With `CC(C)Oc1ccc(Cn2c3c(c(O)c(C(=O)NCC(=O)O)c2=O)CCOC3)cc1` [Example 56, 2-(4-hydroxy-1-(4-isopropoxybenzyl)-2-oxo-2,5,6,8-tetrahydro-1H-pyrano[3,4-b]pyridine-3-carboxamido)acetic acid] the figure was 29.1 nM; with `O=C(O)CNC(=O)c1c(O)c2c(n(Cc3ccc(OC(F)(F)F)cc3)c1=O)CCOC2` [Example 7, 2-(4-hydroxy-2-oxo-1-(4-(trifluoromethoxy)benzyl)-2,5,7,8-tetrahydro-1H-pyrano[4,3-b]pyridine-3-carboxamido)acetic acid], 10.3 nM. The compound `O=C(O)CNC(=O)c1c(O)c2c(n(Cc3ccc(Cl)cc3F)c1=O)COCC2` [Example 47, 2-(1-(4-chloro-2-fluorobenzyl)-4-hydroxy-2-oxo-2,5,6,8-tetrahydro-1H-pyrano[3,4-b]pyridine-3-carboxamido)acetic acid] displayed a concentration for half-maximal inhibition (IC50) of 19.3 nM. This IC50 lies about 1.9-fold higher than the previous one. With `CC(C)(O)c1ccc(Cn2c3c(c(O)c(C(=O)NCC(=O)O)c2=O)CCOC3)cc1` [Example 63, 2-(4-Hydroxy-1-(4-(2-hydroxypropan-2-yl)benzyl)-2-oxo-2,5,6,8-tetrahydro-1H-pyrano[3,4-b]pyridine-3-carboxamido)acetic acid] the figure was 67.4 nM.

`O=C(O)CNC(=O)c1c(O)c2c(n(Cc3ccc(C(F)(F)F)cc3)c1=O)NCCC2` [Example 78, 2-(4-Hydroxy-2-oxo-1-(4-(trifluoromethyl)benzyl)-1,2,5,6,7,8-hexahydro-1,8-naphthyridine-3-carboxamido)acetic acid] had an IC50 of 70 nM. As for `CN1Cc2c(c(O)c(C(=O)NCC(=O)O)c(=O)n2Cc2ccc(F)cc2F)CC1=O` [Example 72, 2-(1-(2,4-difluorobenzyl)-4-hydroxy-7-methyl-2,6-dioxo-1,2,5,6,7,8-hexahydro-1,7-naphthyridine-3-carboxamido)acetic acid], the figure is 28.7 nM.
